Reference: US20260062443A1 (ALEXION PHARMACEUTICALS, INC., priority 2022, published 2026)

Target: T1, Human complement C1s enzyme (Homo sapiens, UniProt P09871)
T1 sequence (P09871 438-688 limits assumed): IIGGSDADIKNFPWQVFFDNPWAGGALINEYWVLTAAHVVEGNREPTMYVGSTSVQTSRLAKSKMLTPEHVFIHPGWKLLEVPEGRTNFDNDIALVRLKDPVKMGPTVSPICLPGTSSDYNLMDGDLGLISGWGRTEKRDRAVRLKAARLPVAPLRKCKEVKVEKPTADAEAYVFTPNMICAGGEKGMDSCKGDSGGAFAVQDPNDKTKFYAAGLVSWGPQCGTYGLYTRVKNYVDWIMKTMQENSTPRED
T1 sequence (P09871 16-437 partner limits assumed): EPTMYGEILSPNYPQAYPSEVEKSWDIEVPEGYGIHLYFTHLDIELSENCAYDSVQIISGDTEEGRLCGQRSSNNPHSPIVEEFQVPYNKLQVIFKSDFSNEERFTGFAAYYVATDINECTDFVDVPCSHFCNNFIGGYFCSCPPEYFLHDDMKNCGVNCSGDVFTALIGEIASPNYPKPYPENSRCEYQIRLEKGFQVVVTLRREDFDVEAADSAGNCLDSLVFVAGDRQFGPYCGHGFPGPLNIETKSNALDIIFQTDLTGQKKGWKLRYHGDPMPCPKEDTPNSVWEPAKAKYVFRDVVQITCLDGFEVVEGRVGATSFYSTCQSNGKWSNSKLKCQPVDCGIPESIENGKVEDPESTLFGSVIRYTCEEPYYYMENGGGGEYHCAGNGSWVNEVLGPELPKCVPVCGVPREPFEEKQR
Assay: Human C1s enzyme assay
Format: biochemical
Conditions: human complement C1s enzyme 1.16 nM, substrate Z-L-Lys-SBzl 100 μM, 5 min preincubation; read-out: IC50 (Stars), C1s Inhibiting Activity
How it was run: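 IC50 from nonlinear regression of reaction rates versus compound concentration, with rates taken from A405 recorded at 30 s intervals over 30 min after adding 100 μM Z-L-Lys-SBzl plus 100 μM DTNB. Enzyme was human C1s purified from serum, 1.16 nM, given 5 min compound preincubation at room temperature, pH 7.5 Tris/1 M NaCl.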

In the case of `O=C(NCC(=O)N1CC2(C[C@H]1C(=O)NCc1cc3cnccc3[nH]1)OCCO2)c1cccc(Oc2ccccc2)c1` [Compound 144, (S)-N-((1H-pyrrolo[3,2-c]pyridin-2-yl)methyl)-7-((3-phenoxybenzoyl)glycyl)-1,4-dioxa-7-azaspiro[4.4]nonane-8-carboxamide], the IC50 is reported as < 100 nM.

In the case of `C[C@@H](NC(=O)[C@@H]1CC2(CN1C(=O)CNC(=O)c1ccc(-c3ccc(F)cc3F)cc1)OCCO2)c1cc2cnccc2[nH]1` [Compound 68, (S)-N-((R)-1-(1H-pyrrolo[3,2-c]pyridin-2-yl)ethyl)-7-((2′,4′-difluoro-[1,1′-biphenyl]-4-carbonyl)glycyl)-1,4-dioxa-7-azaspiro[4.4]nonane-8-carboxamide], the IC50 is reported as 100 to 1000 nM.

In the case of `O=C(NCC(=O)N1C[C@H](OC(F)F)C[C@H]1C(=O)NCc1cc2cnccc2[nH]1)c1cccc(Oc2ccsc2)c1` [Compound 303, (2S,4R)-4-(difluoromethoxy)-N-(1H-pyrrolo[3,2-c]pyridin-2-ylmethyl)-1-[2-[[3-(3-thienyloxy)benzoyl]amino]acetyl]pyrrolidine-2-carboxamide], the IC50 is reported as < 100 nM.

With `C[C@@]12C[C@@H]1N(C(=O)CNC(=O)c1ccc3c(c1)Oc1ccccc1S3)[C@H](C(=O)NCc1ccc(B(O)O)cc1)C2` [Compound 263, (4-(((1S,3S,5S)-5-methyl-2-((phenoxathiine-3-carbonyl)glycyl)-2-azabicyclo[3.1.0]hexane-3-carboxamido)methyl)phenyl) boronic acid] the IC50 was > 1000 nM.

In the case of `O=C(NCC(=O)N1C[C@H](OC(F)F)C[C@H]1C(=O)N[C@@H](CO)c1cc2cnccc2[nH]1)c1ccc2c(c1)-c1ccccc1C2(F)F` [Compound 128, (2S,4R)-1-((9,9-difluoro-9H-fluorene-3-carbonyl)glycyl)-4-(difluoromethoxy)-N-((R)-2-hydroxy-1-(1H-pyrrolo[3,2-c]pyridin-2-yl)ethyl) pyrrolidine-2-carboxamide], the IC50 is reported as > 1000 nM.

With `O=C(NCC(=O)N1CC2(C[C@H]1C(=O)NCc1cc3cnccc3[nH]1)OCCO2)c1ccc2sc3ccccc3c2c1` [Compound 212, (S)-N-((1H-pyrrolo[3,2-c]pyridin-2-yl)methyl)-7-((dibenzo[b,d]thiophene-2-carbonyl)glycyl)-1,4-dioxa-7-azaspiro[4.4]nonane-8-carboxamide] the IC50 was < 100 nM.

For `C[C@@]12C[C@@H]1N(C(=O)CNC(=O)c1ccc3c(c1)Oc1ccccc1S3)[C@H](C(=O)NCc1ccc3c(c1)B(O)OC3)C2` [Compound 290, (1S,3S,5S)-N-((1-hydroxy-1,3-dihydrobenzo[c][1,2]oxaborol-6-yl)methyl)-5-methyl-2-((phenoxathiine-3-carbonyl)glycyl)-2-azabicyclo[3.1.0]hexane-3-carboxamide], the IC50 was > 1000 nM.

In the case of `Cc1ccc(Oc2cccc(C(=O)NCC(=O)N3C[C@H](OC(F)F)C[C@H]3C(=O)NCc3cc4cnccc4[nH]3)c2)cc1` [Compound 272], the IC50 is reported as < 100 nM.

`Cc1ccc(-c2ccc3c(c2)CN(CC(=O)N2C[C@H](OC(F)F)C[C@H]2C(=O)N[C@H](C)c2cc4cnccc4[nH]2)C3=O)cc1` [Compound 105, (2S,4R)-N-((R)-1-(1H-pyrrolo[3,2-c]pyridin-2-yl)ethyl)-4-(difluoromethoxy)-1-(2-(1-oxo-5-(p-tolyl)isoindolin-2-yl)acetyl)pyrrolidine-2-carboxamide] was tested, and the IC50 was < 100 nM.

`COC[C@@]1(F)C[C@@H](C(=O)N[C@H](C)c2cc3cnccc3[nH]2)N(C(=O)CNC(=O)c2ccc(Oc3ccc(F)cc3)cc2)C1` [Compound 175, (2S,4R)-N-((R)-1-(1H-pyrrolo[3,2-c]pyridin-2-yl)ethyl)-4-fluoro-1-((4-(4-fluorophenoxy)benzoyl)glycyl)-4-(methoxymethyl)pyrrolidine-2-carboxamide] was tested, and the IC50 was < 100 nM.

In the case of `C[C@@H](NC(=O)[C@@H]1C[C@](F)(CF)CN1C(=O)CNC(=O)c1ccc2c(c1)Oc1ccccc1S2)c1cc2cnccc2[nH]1` [Compound 164, (2S,4R)-N-((R)-1-(1H-pyrrolo[3,2-c]pyridin-2-yl)ethyl)-4-fluoro-4-(fluoromethyl)-1-((phenoxathiine-3-carbonyl)glycyl)pyrrolidine-2-carboxamide], the IC50 is reported as < 100 nM.

In the case of `O=C(NCC(=O)N1C[C@H](OC(F)F)C[C@H]1C(=O)NCc1cc2cnccc2[nH]1)c1ccc(Oc2ccccc2)cc1` [Compound 18, (2S,4R)-N-((1H-pyrrolo[3,2-c]pyridin-2-yl)methyl)-4-(difluoromethoxy)-1-((4-phenoxybenzoyl)glycyl) pyrrolidine-2-carboxamide], the IC50 is reported as < 100 nM.

`O=C(NCC(=O)N1C[C@H](OC(F)F)C[C@H]1C(=O)N[C@H](CO)c1cc2cnccc2[nH]1)c1ccc(Oc2ccc(F)cc2)cc1` [Compound 98, (2S,4R)-4-(difluoromethoxy)-1-((4-(4-fluorophenoxy)benzoyl)glycyl)-N-((S)-2-hydroxy-1-(1H-pyrrolo[3,2-c]pyridin-2-yl)ethyl)pyrrolidine-2-carboxamide] was tested, and the IC50 was 100 to 1000 nM.

`Cc1ccc(Oc2cccc(C(=O)NCC(=O)N3CC4(C[C@H]3C(=O)N[C@H](C)c3cc5cnccc5[nH]3)OCCO4)c2)c(F)c1` [Compound 321, (S)-N-((R)-1-(1H-pyrrolo[3,2-c]pyridin-2-yl)ethyl)-7-((3-(2-fluoro-4-methylphenoxy)benzoyl)glycyl)-1,4-dioxa-7-azaspiro[4.4]nonane-8-carboxamide] was tested, and the IC50 was < 100 nM.

For `C[C@@H](NC(=O)[C@@H]1C[C@@H](OC(F)F)CN1C(=O)CNC(=O)c1ccc2c(c1)C(F)(F)c1ccccc1-2)c1cc2cnccc2[nH]1` [Compound 167, (2S,4R)-N-((R)-1-(1H-pyrrolo[3,2-c]pyridin-2-yl)ethyl)-1-((9,9-difluoro-9H-fluorene-2-carbonyl)glycyl)-4-(difluoromethoxy)pyrrolidine-2-carboxamide], the IC50 was < 100 nM.

With `O=C(NCC(=O)N1C[C@H](OC(F)F)C[C@H]1C(=O)NCc1cc2cnccc2[nH]1)c1cccc(Oc2ccc(F)cc2)c1` [Compound 154, (2S,4R)-N-((1H-pyrrolo[3,2-c]pyridin-2-yl)methyl)-4-(difluoromethoxy)-1-((3-(4-fluorophenoxy)benzoyl)glycyl)pyrrolidine-2-carboxamide] the IC50 was < 100 nM.

`COC[C@@]1(F)C[C@@H](C(=O)NCc2cc3cnccc3[nH]2)N(C(=O)CNC(=O)c2ccc3c(c2)Oc2ccccc2S3)C1` [Compound 25, (2S,4R)-N-((1H-pyrrolo[3,2-c]pyridin-2-yl)methyl)-4-fluoro-4-(methoxymethyl)-1-((phenoxathiine-3-carbonyl)glycyl)pyrrolidine-2-carboxamide] was tested, and the IC50 was < 100 nM.

With `O=C(NCC(=O)N1CC2(C[C@H]1C(=O)NCc1cc3cnccc3s1)OCCO2)c1ccc2c(c1)Oc1ccccc1S2` [Compound 54, (S)-7-((phenoxathiine-3-carbonyl)glycyl)-N-(thieno[3,2-c]pyridin-2-ylmethyl)-1,4-dioxa-7-azaspiro[4.4]nonane-8-carboxamide] the IC50 was < 100 nM.

`C[C@@H](NC(=O)[C@@H]1CC2(CN1C(=O)CN1Cc3ccc(-c4ccc(F)cc4F)cc3C1=O)OCCO2)c1cc2cnccc2[nH]1` [Compound 126, (S)-N-((R)-1-(1H-pyrrolo[3,2-c]pyridin-2-yl)ethyl)-7-(2-(6-(2,4-difluorophenyl)-1-oxoisoindolin-2-yl)acetyl)-1,4-dioxa-7-azaspiro[4.4]nonane-8-carboxamide] was tested, and the IC50 was < 100 nM.

`O=C(NCC(=O)N1C[C@H](OC(F)F)C[C@H]1C(=O)NCc1ccc2scnc2c1)c1ccc2c(c1)Oc1ccccc1S2` [Compound 222, (2S,4R)-N-(benzo[d]thiazol-5-ylmethyl)-4-(difluoromethoxy)-1-((phenoxathiine-3-carbonyl)glycyl)pyrrolidine-2-carboxamide] was tested, and the IC50 was > 1000 nM.

`O=C(NCC(=O)N1C[C@H](OC(F)F)C[C@H]1C(=O)N[C@H](CO)c1cc2cnccc2[nH]1)c1ccc2c(c1)-c1ccccc1C2(F)F` [Compound 103, (2S,4R)-1-((9,9-difluoro-9H-fluorene-3-carbonyl)glycyl)-4-(difluoromethoxy)-N-((S)-2-hydroxy-1-(1H-pyrrolo[3,2-c]pyridin-2-yl)ethyl) pyrrolidine-2-carboxamide] showed an IC50 of 100 to 1000 nM.

For `O=C(NCC(=O)N1CC2(C[C@H]1C(=O)NCc1cc3cncc(F)c3[nH]1)OCCO2)c1ccc2c(c1)Oc1ccccc1S2` [Compound 45, (S)-N-((7-fluoro-1H-pyrrolo[3,2-c]pyridin-2-yl)methyl)-7-((phenoxathiine-3-carbonyl)glycyl)-1,4-dioxa-7-azaspiro[4.4]nonane-8-carboxamide], the IC50 was > 1000 nM.

For `C[C@@H](NC(=O)[C@@H]1CC2(CN1C(=O)CNC(=O)c1cccc(Oc3ccc(F)cc3)c1)OCCO2)c1cc2cnccc2[nH]1` [Compound 240, (S)-N-((R)-1-(1H-pyrrolo[3,2-c]pyridin-2-yl)ethyl)-7-((3-(4-fluorophenoxy)benzoyl)glycyl)-1,4-dioxa-7-azaspiro[4.4]nonane-8-carboxamide], the IC50 was < 100 nM.
